The source made the active and inactive calls. The rule behind the calls is not given here.
What was measured:
HepG2 [1] = assay: Induction of apoptosis in human HepG2 cells assessed as chromatin condensation after 48 hrs by acridine orange/ethidium bromide staining-based fluorescence microscopic analysis; assay type: functional, cell-based
HepG2 [2] = assay: Cell cycle arrest in human HepG2 cells assessed as accumulation at G2/M phase at 1 uM after 24 hrs by propidium iodide staining based flow cytometric analysis (reference value: 28.79%); assay type: functional
HepG2 [3] = assay: Induction of apoptosis in human HepG2 cells assessed as cell shrinkage after 48 hrs by acridine orange/ethidium bromide staining-based fluorescence microscopic analysis; assay type: functional
HepG2 [4] = assay: Cell cycle arrest in human HepG2 cells assessed as accumulation at sub-G1 phase at 0.5 uM after 24 hrs by propidium iodide staining based flow cytometric analysis (reference value: 1.73%); assay type: functional
HepG2 [5] = assay: Induction of apoptosis in human HepG2 cells assessed as reduction in number of viable cells at 0.5 to 2.5 uM after 48 hrs by inverted phase contrast microscopic analysis; assay type: functional, cell-based
HepG2 [6] = assay: Cell cycle arrest in human HepG2 cells assessed as accumulation at sub-G1 phase at 2.5 uM after 24 hrs by propidium iodide staining based flow cytometric analysis (reference value: 1.73%); assay type: functional
HepG2 [7] = assay: Induction of apoptosis in human HepG2 cells assessed as mitochondrial depolarized cells level at 2.5 uM after 48 hrs by JC-1 staining based flow cytometric method (reference value: […]); assay type: functional
HepG2 [8] = assay: Induction of apoptosis in human HepG2 cells assessed as viable cells at 0.5 uM after 48 hrs by annexin V-FITC/propidium iodide staining-based flow cytometry analysis (reference value: 98.14%); assay type: functional; conditions: HepG2, 48 h, read-out: Activity
HeLa = assay: Cytotoxicity against human HeLa cells assessed as reduction in cell viability after 48 hrs by MTT assay; assay type: functional, cell-based
HepG2 [9] = assay: Induction of apoptosis in human HepG2 cells assessed as late apoptotic cells at 2.5 uM after 48 hrs by annexin V-FITC/propidium iodide staining-based flow cytometry analysis (reference value: 0.26%); assay type: functional
HepG2 [10] = assay: Induction of apoptosis in human HepG2 cells assessed as viable cells at 2.5 uM after 48 hrs by annexin V-FITC/propidium iodide staining-based flow cytometry analysis (reference value: 98.14%); assay type: functional; conditions: HepG2, 48 h, read-out: Activity
HepG2 [11] = assay: Cell cycle arrest in human HepG2 cells assessed as accumulation at G0/G1 phase at 0.5 uM after 24 hrs by propidium iodide staining based flow cytometric analysis (reference value: 49.93%); assay type: functional
HepG2 [12] = assay: Induction of apoptosis in human HepG2 cells assessed as late apoptotic cells at 0.5 uM after 48 hrs by annexin V-FITC/propidium iodide staining-based flow cytometry analysis (reference value: 0.26%); assay type: functional
HepG2 [13] = assay: Induction of apoptosis in human HepG2 cells assessed as mitochondrial polarized cells level at 2.5 uM after 48 hrs by JC-1 staining based flow cytometric method (reference value: 93.02%); assay type: functional
HepG2 [14] = assay: Induction of apoptosis in human HepG2 cells assessed as early apoptotic cells at 0.5 uM after 48 hrs by annexin V-FITC/propidium iodide staining-based flow cytometry analysis (reference value: 0.98%); assay type: functional
HepG2 [15] = assay: Induction of apoptosis in human HepG2 cells assessed as horse-shoe shaped nuclei at 0.5 to 2.5 uM after 48 hrs by DAPI staining-based fluorescence microscopic analysis; assay type: functional, cell-based
HepG2 [16] = assay: Cytotoxicity against human HepG2 cells assessed as reduction in cell viability after 48 hrs by MTT assay; assay type: functional, cell-based; conditions: HepG2, 48 h
HaCaT = assay: Cytotoxicity against human HaCaT cells assessed as reduction in cell viability after 48 hrs by MTT assay; assay type: cell-based
HepG2 [17] = assay: Induction of apoptosis in human HepG2 cells assessed as increase in loss of mitochondrial membrane potential after 48 hrs by JC-1 staining based flow cytometric method; assay type: functional, cell-based
[18] = Cytotoxicity against human […] cells assessed as reduction in cell viability after 48 hrs by MTT assay; assay type: functional, cell-based
HepG2 [19] = assay: Induction of apoptosis in human HepG2 cells assessed as necrotic cells at 1 uM after 48 hrs by annexin V-FITC/propidium iodide staining-based flow cytometry analysis (reference value: 0.62%); assay type: functional
HepG2 [20] = assay: Induction of apoptosis in human HepG2 cells assessed as necrotic cells at 2.5 uM after 48 hrs by annexin V-FITC/propidium iodide staining-based flow cytometry analysis (reference value: 0.62%); assay type: functional
HepG2 [21] = assay: Induction of apoptosis in human HepG2 cells assessed as necrotic cells at 0.5 uM after 48 hrs by annexin V-FITC/propidium iodide staining-based flow cytometry analysis (reference value: 0.62%); assay type: functional
HepG2 [22] = assay: Cell cycle arrest in human HepG2 cells assessed as accumulation at sub-G1 phase at 1 uM after 24 hrs by propidium iodide staining based flow cytometric analysis (reference value: 1.73%); assay type: functional
HepG2 [23] = assay: Induction of apoptosis in human HepG2 cells assessed as […] deformation at 0.5 to 2.5 uM after 48 hrs by inverted phase contrast microscopic analysis; assay type: functional, cell-based
HepG2 [24] = assay: Induction of apoptosis in human HepG2 cells after 48 hrs by annexin V-FITC/propidium iodide staining-based flow cytometry analysis; assay type: functional, cell-based
HepG2 [25] = assay: Induction of apoptosis in human HepG2 cells assessed as mitochondrial depolarized cells level at 0.5 uM after 48 hrs by JC-1 staining based flow cytometric method (reference value: […]); assay type: functional
HepG2 [26] = assay: Induction of apoptosis in human HepG2 cells assessed as late apoptotic cells at 1 uM after 48 hrs by annexin V-FITC/propidium iodide staining-based flow cytometry analysis (reference value: 0.26%); assay type: functional
HepG2 [27] = assay: Induction of apoptosis in human HepG2 cells assessed as cell shrinkage at 0.5 to 2.5 uM after 48 hrs by inverted phase contrast microscopic analysis; assay type: functional, cell-based
HepG2 [28] = assay: Cell cycle arrest in human HepG2 cells assessed as accumulation at S phase at 1 uM after 24 hrs by propidium iodide staining based flow cytometric analysis (reference value: 7.57%); assay type: functional
HepG2 [29] = assay: Cell cycle arrest in human HepG2 cells assessed as accumulation at S phase at 2.5 uM after 24 hrs by propidium iodide staining based flow cytometric analysis (reference value: 7.57%); assay type: functional
HepG2 [30] = assay: Cell cycle arrest in human HepG2 cells assessed as accumulation at G2/M phase at 2.5 uM after 24 hrs by propidium iodide staining based flow cytometric analysis (reference value: 28.79%); assay type: functional
HepG2 [31] = assay: Induction of apoptosis in human HepG2 cells assessed as early apoptotic cells at 2.5 uM after 48 hrs by annexin V-FITC/propidium iodide staining-based flow cytometry analysis (reference value: 0.98%); assay type: functional
HepG2 [32] = assay: Induction of apoptosis in human HepG2 cells assessed as membrane blebbing after 48 hrs by acridine orange/ethidium bromide staining-based fluorescence microscopic analysis; assay type: functional, cell-based
HepG2 [33] = assay: Induction of apoptosis in human HepG2 cells assessed as condensed nuclei at 0.5 to 2.5 uM after 48 hrs by DAPI staining-based fluorescence microscopic analysis; assay type: functional, cell-based
A549 = assay: Cytotoxicity against human A549 cells assessed as reduction in cell viability after 48 hrs by MTT assay; assay type: functional, cell-based; conditions: A549, 48 h
HepG2 [34] = assay: Induction of ROS accumulation in human HepG2 cells after 48 hrs by DCF-DA staining based fluorescence microscopic analysis; assay type: functional, cell-based

O=Cc1c(O)ccc2oc(-c3cccc(Cl)c3)nc12
Activity (HepG2 [1]): Dose-dependent effect
Activity (HepG2 [2]): 27.15%
Activity (HepG2 [3]): Dose-dependent effect
Activity (HepG2 [4]): 2.42%
Activity (HepG2 [5]): Active
Activity (HepG2 [6]): 13.2%
Activity (HepG2 [7]): 71.49%
viability at 0.5 µM (HepG2 [8]): 83.3%
IC50 (HeLa): 2180 nM
Activity (HepG2 [9]): 1.64%
viability at 2.5 µM (HepG2 [10]): 40.2%
Activity (HepG2 [11]): 59.01%
Activity (HepG2 [12]): 0.75%
Activity (HepG2 [13]): 29.19%
Activity (HepG2 [14]): 12.5%
Activity (HepG2 [15]): Active
IC50 (HepG2 [16]): 810 nM
IC50 (HaCaT): 17800 nM
Activity (HepG2 [17]): Dose-dependent effect
IC50 [18]: 980 nM
Activity (HepG2 [19]): 1.84%
Activity (HepG2 [20]): 2.01%
Activity (HepG2 [21]): 2.42%
Activity (HepG2 [22]): 5.64%
Activity (HepG2 [23]): Active
Activity (HepG2 [24]): Dose-dependent effect
Activity (HepG2 [25]): 14.91%
Activity (HepG2 [26]): 0.55%
Activity (HepG2 [27]): Active
Activity (HepG2 [28]): 5.53%
Activity (HepG2 [29]): 8.32%
Activity (HepG2 [30]): 22.57%
Activity (HepG2 [31]): 56.17%
Activity (HepG2 [32]): Dose-dependent effect
Activity (HepG2 [33]): Active
IC50 (A549): 1870 nM
Activity (HepG2 [34]): Dose-dependent effect
